Laboratory results from US20240209019A1, “COMPOUNDS AND METHODS FOR TREATING HYPERKALEMIA” (ARDELYX, INC., priority 2019, published 2024).

molecular target: HSD2 (Homo sapiens (Human), UniProt P80365); assay: HSD2 activity: cortisol conversion in human descending colon organoid monolayer cultures (Example 112); details: human descending colon epithelial cultures on transwells; 30 minute pre-incubation, then 40 nM cortisol for four hours; cortisol HTRF assay
Sequence (P80365 whole entry): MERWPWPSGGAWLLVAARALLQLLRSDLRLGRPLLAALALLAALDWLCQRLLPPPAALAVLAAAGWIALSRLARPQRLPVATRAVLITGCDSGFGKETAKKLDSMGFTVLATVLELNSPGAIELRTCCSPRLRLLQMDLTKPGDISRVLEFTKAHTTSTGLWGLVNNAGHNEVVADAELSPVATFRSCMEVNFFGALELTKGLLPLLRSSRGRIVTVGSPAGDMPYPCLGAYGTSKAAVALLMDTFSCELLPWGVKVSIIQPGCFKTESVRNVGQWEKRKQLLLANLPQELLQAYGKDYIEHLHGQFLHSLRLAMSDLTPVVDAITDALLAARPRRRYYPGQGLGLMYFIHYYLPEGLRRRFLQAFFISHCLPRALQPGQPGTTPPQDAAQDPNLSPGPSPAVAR
Protocol: Human descending colon epithelial stem cells were cultured as 3D organoids in accordance with Sato et al. Gastroenterology. […] Cultures were differentiated using SBM containing ENRA and 30 nM aldosterone on day 3, and cultures were used for assay on day 6 or 7. Compounds were diluted in DMSO and serial dilutions prepared by titrating in DMSO. Compounds were then diluted into DMEM/F12. Transwell plates containing descending colon cultures were washed twice with DMEM/F12 and compound was added to the apical compartment. Cells were incubated with test compound for 30 minutes at 37° C., 5% CO2 to equilibrate across the cell membrane. A second compound plate was prepared in which the serially diluted compounds in DMSO were diluted into DMEM/F12 containing 40 nM cortisol. Following the 30 minute pre-incubation step, the apical media was aspirated and compounds diluted in DMEM/F12 with 40 nM cortisol were added to the apical side of the transwell. The plate was then incubated for four hours at 37° C., 5% CO2. Cortisol levels were measured using a cortisol HTRF assay kit as described by the manufacturer (Cisbio). Concentration-response curves were then plotted and IC50 (and pIC50) values were determined using least squares non-linear regression.
Inhibition of HSD2 activity as measured by the inhibition of the conversion of cortisone to cortisol.

| Molecule | pIC50 |
| --- | --- |
| Cc1oc(=O)oc1COC(=O)[C@]1(C)[C@@H](OC(=O)C2CC2)CC[C@@]2(C)[C@H]1CC[C@]1(C)[C@@H]2C(=O)C=C2[C@@H]3C[C@@](C)(C(=O)O)CC[C@]3(C)CC[C@]21C [Compound 198-2, (2S,4aS,6aS,6bR,8aR,9S,10S,12aS,12bR,14bR)-10-((Cyclopropanecarbonyl)oxy)-2,4a,6a,6b,9,12a-hexamethyl-9-(((5-methyl-2-oxo-1,3-dioxol-4-yl)methoxy)carbonyl)-13-oxo-1,2,3,4,4a,5,6,6a,6b,7,8,8a,9,10,11,12,12a,12b,13,14b-icosahydropicene-2-carboxylic acid] | 7.7 |
| CCc1oc(=O)oc1COC(=O)[C@]1(C)[C@@H](OC(C)=O)CC[C@@]2(C)[C@H]1CC[C@]1(C)[C@@H]2C(=O)C=C2[C@@H]3C[C@@](C)(C(=O)O)CC[C@]3(C)CC[C@]21C [Compound 316-1, (2S,4aS,6aS,6bR,8aR,9S,10S,12aS,12bR,14bR)-10-acetoxy-9-(((5-ethyl-2-oxo-1,3-dioxol-4-yl)methoxy)carbonyl)-2,4a,6a,6b,9,12a-hexamethyl-13-oxo-1,2,3,4,4a,5,6,6a,6b,7,8,8a,9,10,11,12,12a,12b,13,14b-icosahydropicene-2-carboxylic acid] | 7.5 |
| Cc1oc(=O)oc1COC(=O)[C@]1(C)[C@@H](OC(=O)CO)CC[C@@]2(C)[C@H]1CC[C@]1(C)[C@@H]2C(=O)C=C2[C@@H]3C[C@@](C)(C(=O)O)CC[C@]3(C)CC[C@]21C [Compound 244-1, (2S,4aS,6aS,6bR,8aR,9S,10S,12aS,12bR,14bR)-10-(2-Hydroxyacetoxy)-2,4a,6a,6b,9,12a-hexamethyl-9-(((5-methyl-2-oxo-1,3-dioxol-4-yl)methoxy)carbonyl)-13-oxo-1,2,3,4,4a,5,6,6a,6b,7,8,8a,9,10,11,12,12a,12b,13,14b-icosahydropicene-2-carboxylic acid] | 6.8 |
| Cc1oc(=O)oc1COC(=O)[C@]1(C)[C@@H](OC(=O)NCCN2CCOCC2)CC[C@@]2(C)[C@H]1CC[C@]1(C)[C@@H]2C(=O)C=C2[C@@H]3C[C@@](C)(C(=O)O)CC[C@]3(C)CC[C@]21C [Compound 286-4, (2S,4aS,6aS,6bR,8aR,9S,10S,12aS,12bR,14bR)-2,4a,6a,6b,9,12a-hexamethyl-9-(((5-methyl-2-oxo-1,3-dioxol-4-yl)methoxy)carbonyl)-10-(((2-morpholinoethyl)carbamoyl)oxy)-13-oxo-1,2,3,4,4a,5,6,6a,6b,7,8,8a,9,10,11,12,12a,12b,13,14b-icosahydropicene-2-carboxylic acid] | 6.9 |
| C[C@]1(C(=O)O)CC[C@]2(C)CC[C@]3(C)C(=CC(=O)[C@@H]4[C@@]5(C)CC[C@H](OC(=O)CO)[C@@](C)(C(=O)O)[C@@H]5CC[C@]43C)[C@@H]2C1 [(2S,4aS,6aS,6bR,8aR,9S,10S,12aS,12bR,14bR)-10-[(2-hydroxyacetyl)oxy]-2,4a,6a,6b,9,12a-hexamethyl-13-oxo-1,2,3,4,4a,5,6,6a,6b,7,8,8a,9,10,11,12,12a,12b,13,14b-icosahydropicene-2,9-dicarboxylic acid] | 5.9 |
| COCO[C@H]1CC[C@@]2(C)[C@@H](CC[C@]3(C)[C@@H]2C(=O)C=C2[C@@H]4C[C@@](C)(C(=O)O)CC[C@]4(C)CC[C@]23C)[C@]1(C)C(=O)OCc1oc(=O)oc1C [Compound 205-2, (2S,4aS,6aS,6bR,8aR,9S,10S,12aS,12bR,14bR)-10-(Methoxymethoxy)-2,4a,6a,6b,9,12a-hexamethyl-9-(((5-methyl-2-oxo-1,3-dioxol-4-yl)methoxy)carbonyl)-13-oxo-1,2,3,4,4a,5,6,6a,6b,7,8,8a,9,10,11,12,12a,12b,13,14b-icosahydropicene-2-carboxylic acid] | 6.4 |
| COCCOCCOCCSCc1oc(=O)oc1COC(=O)CO[C@H]1CC[C@]2(C)[C@H]3C(=O)C=C4[C@@H]5C[C@@](C)(C(=O)O)CC[C@]5(C)CC[C@@]4(C)[C@]3(C)CC[C@H]2C1(C)C [Compound 710-1, (2S,4aS,6aS,6bR,8aR,10S,12aS,12bR,14bR)-2,4a,6a,6b,9,9,12a-heptamethyl-13-oxo-10-(2-oxo-2-{[2-oxo-5-(2,5,8-trioxa-11-thiadodecan-12-yl)-2H-1,3-dioxol-4-yl]methoxy}ethoxy)-1,2,3,4,4a,5,6,6a,6b,7,8,8a,9,10,11,12,12a,12b,13,14b-icosahydropicene-2-carboxylic acid] | 6 |
| CC1OC(=O)OC1COC(=O)[C@H]1CC[C@]2(C)[C@H]3C(=O)C=C4[C@@H]5C[C@@](C)(C(=O)O)CC[C@]5(C)CC[C@@]4(C)[C@]3(C)CC[C@H]2C1(C)C (stereo partly drawn) [Compound 178-1, (2S,4aS,6aS,6bR,8aS,10S,12aS,12bR,14bR)-2,4a,6a,6b,9,9,12a-Heptamethyl-10-(((5-methyl-2-oxo-1,3-dioxolan-4-yl)methoxy)carbonyl)-13-oxo-1,2,3,4,4a,5,6,6a,6b,7,8,8a,9,10,11,12,12a,12b,13,14b-icosahydropicene-2-carboxylic acid] | 6.3 |
| Cc1oc(=O)oc1COC(=O)[C@H]1CC[C@]2(C)[C@H]3C(=O)C=C4[C@@H]5C[C@@](C)(C(=O)O)CC[C@]5(C)CC[C@@]4(C)[C@]3(C)CC[C@H]2C1(C)C [Compound 176-2, (2S,4aS,6aS,6bR,8aS,10S,12aS,12bR,14bR)-2,4a,6a,6b,9,9,12a-Heptamethyl-10-(((5-methyl-2-oxo-1,3-dioxol-4-yl)methoxy)carbonyl)-13-oxo-1,2,3,4,4a,5,6,6a,6b,7,8,8a,9,10,11,12,12a,12b,13,14b-icosahydropicene-2-carboxylic acid] | 6.3 |
| CC(=O)O[C@H]1CC[C@@]2(C)[C@@H](CC[C@]3(C)[C@@H]2C(=O)C=C2[C@@H]4C[C@@](C)(C(=O)O)CC[C@]4(C)CC[C@]23C)[C@]1(C)C(=O)OCc1oc(=O)oc1C [Compound 243-1, (2S,4aS,6aS,6bR,8aR,9S,10S,12aS,12bR,14bR)-10-Acetoxy-2,4a,6a,6b,9,12a-hexamethyl-9-(((5-methyl-2-oxo-1,3-dioxol-4-yl)methoxy)carbonyl)-13-oxo-1,2,3,4,4a,5,6,6a,6b,7,8,8a,9,10,11,12,12a,12b,13,14b-icosahydropicene-2-carboxylic acid] | 7.5 |
| Cc1oc(=O)oc1COC(=O)COC[C@@]1(C)[C@@H]2CC[C@]3(C)[C@H](C(=O)C=C4[C@@H]5C[C@@](C)(C(=O)O)CC[C@]5(C)CC[C@]43C)[C@@]2(C)CC[C@@H]1O [Compound 240-8, (2S,4aS,6aS,6bR,8aR,9R,10S,12aS,12bR,14bR)-10-Hydroxy-2,4a,6a,6b,9,12a-hexamethyl-9-((2-((5-methyl-2-oxo-1,3-dioxol-4-yl)methoxy)-2-oxoethoxy)methyl)-13-oxo-1,2,3,4,4a,5,6,6a,6b,7,8,8a,9,10,11,12,12a,12b,13,14b-icosahydropicene-2-carboxylic acid] | 5 |
| 2-(3-((1-PEG5K-1H-1,2,3-triazol-4-yl)methoxy)-4-nitrobenzyl) 9-((5-methyl-2-oxo-1,3-dioxol-4-yl)methyl) (2S,4aS,6aS,6bR,8aR,9S,10S,12aS,12bR,14bR)-10-((2,5,8,11-tetraoxatetradecan-14-oyl)oxy)-2,4a,6a,6b,9,12a-hexamethyl-13-oxo-1,2,3,4,4a,5,6,6a,6b,7,8,8a,9,10,11,12,12a,12b,13,14b-icosahydropicene-2,9-dicarboxylate [Compound 605-2] | 6.9 |
| CC1(C)[C@@H](OCC(=O)OCc2oc(=O)oc2CO)CC[C@]2(C)[C@H]3C(=O)C=C4[C@@H]5C[C@@](C)(C(=O)O)CC[C@]5(C)CC[C@@]4(C)[C@]3(C)CC[C@@H]12 [Compound 711-1, (2S,4aS,6aS,6bR,8aR,10S,12aS,12bR,14bR)-10-(2-{[5-(hydroxymethyl)-2-oxo-2H-1,3-dioxol-4-yl]methoxy}-2-oxoethoxy)-2,4a,6a,6b,9,9,12a-heptamethyl-13-oxo-1,2,3,4,4a,5,6,6a,6b,7,8,8a,9,10,11,12,12a,12b,13,14b-icosahydropicene-2-carboxylic acid] | 5.8 |
| CC1(C)[C@@H](C(=O)O)CC[C@]2(C)[C@H]3C(=O)C=C4[C@@H]5C[C@@](C)(C(=O)O)CC[C@]5(C)CC[C@@]4(C)[C@]3(C)CC[C@@H]12 [(2S,4aS,6aS,6bR,8aS,10S,12aS,12bR,14bR)-2,4a,6a,6b,9,9,12a-heptamethyl-13-oxo-1,2,3,4,4a,5,6,6a,6b,7,8,8a,9,10,11,12,12a,12b,13,14b-icosahydropicene-2,10-dicarboxylic acid] | 5.5 |
| CC(=O)O[C@H]1CC[C@@]2(C)[C@@H](CC[C@]3(C)[C@@H]2C(=O)C=C2[C@@H]4C[C@@](C)(C(=O)O)CC[C@]4(C)CC[C@]23C)[C@]1(C)C(=O)OCc1oc(=O)oc1C(C)(C)C [Compound 705-1, (2S,4aS,6aS,6bR,8aR,9S,10S,12aS,12bR,14bR)-10-(acetyloxy)-9-{[(5-tert-butyl-2-oxo-2H-1,3-dioxol-4-yl)methoxy]carbonyl}-2,4a,6a,6b,9,12a-hexamethyl-13-oxo-1,2,3,4,4a,5,6,6a,6b,7,8,8a,9,10,11,12,12a,12b,13,14b-icosahydropicene-2-carboxylic acid] | 6.6 |
| CC(=O)O[C@]1(C)CC[C@@]2(C)[C@@H](CC[C@]3(C)[C@@H]2C(=O)C=C2[C@@H]4C[C@@](C)(C(=O)O)CC[C@]4(C)CC[C@]23C)[C@]1(C)C(=O)OCc1oc(=O)oc1C(C)C [Compound 702-1, (2S,4aS,6aS,6bR,8aR,9S,10R,12aS,12bR,14bR)-10-(acetyloxy)-2,4a,6a,6b,9,10,12a-heptamethyl-13-oxo-9-({[2-oxo-5-(propan-2-yl)-2H-1,3-dioxol-4-yl]methoxy}carbonyl)-1,2,3,4,4a,5,6,6a,6b,7,8,8a,9,10,11,12,12a,12b,13,14b-icosahydropicene-2-carboxylic acid] | 6.4 |
